The source of these data is patent US11945836B2, “Compositions and methods for treating CNS disorders” (Sage Therapeutics, Inc., priority 2014, dated 2024).

In general, pIC50 refers to the IC50 on a negative log10 scale, so that one unit is a factor of ten.

pIC50: −log10 of the molar value. A value given as a limit tells only on which side of the number the result lay.

In this assay the target is rat brain cortical membranes ([35S]-TBPS binding). As to the kind of experiment: Steroid inhibition of [35S]-TBPS binding (radioligand displacement). The conditions noted are these: 3 nM [35S]-TBPS, in the presence of 5 μM GABA. As for the experimental part: Steroid Inhibition of TBPS Binding
TBPS binding assays using rat brain cortical membranes in the presence of 5 μM GABA has been described (Gee et al, J. Pharmacol. Exp. Ther. 1987, 241, 346-353; Hawkinson et al, Mol. Pharmacol. 1994, 46, 977-985; Lewin, A. H et al., Mol. Pharmacol. 1989, 35, 189-194).
Briefly, cortices are rapidly removed following decapitation of carbon dioxide-anesthetized Sprague-Dawley rats (200-250 g). The cortices are homogenized in 10 volumes of ice-cold 0.32 M sucrose using a glass/teflon homogenizer and centrifuged at 1500×g for 10 min at 4° C. The resultant supernatants are centrifuged at 10,000×g for 20 min at 4° C. to obtain the P2 pellets. The P2 pellets are resuspended in 200 mM NaCl/50 mM Na—K phosphate pH 7.4 buffer and centrifuged at 10,000×g for 10 min at 4° C. This washing procedure is repeated twice and the pellets are resuspended in 10 volumes of buffer. Aliquots (100 uL) of the membrane suspensions are incubated with 3 nM [^35S]-TBPS and 5 μL aliquots of test drug dissolved in dimethyl sulfoxide (DMSO) (final 0.5%) in the presence of 5 μM GABA. The incubation is brought to a final volume of 1.0 mL with buffer. […] Following a 90 min incubation at room temp, the assays are terminated by filtration through glass fiber filters (Schleicher and Schuell No. 32) using a cell harvester (Brandel) and rinsed three times with ice-cold buffer. Filter bound radioactivity is measured by liquid scintillation spectrometry. Non-linear curve fitting of the overall data for each drug averaged for each concentration is done using Prism (GraphPad). […] The concentration of test compound producing 50% inhibition (IC50) of specific binding and the maximal extent of inhibition (Imax) are determined for the individual experiments with the same model used for the overall data and then the means±SEMs of the individual experiments are calculated.
Various compounds are or can be screened to determine their potential as modulators of [^35S]-TBPS binding in vitro. These assays are or can be performed in accordance with the above discussed procedures.
A general note: In a radioligand displacement assay an active substance lowers the binding of a labelled ligand.
With `C[C@@]1(O)CC[C@@]2(C)[C@H](CC[C@@H]3[C@@H]2CC[C@]2(C)[C@@H](C(=O)c4ccc(OC(F)(F)F)cc4)CC[C@@H]32)C1` [Compound 47], the pIC50 is 7.30 to 7.70.
The figure for `CSc1ccc(C(=O)[C@H]2CC[C@H]3[C@@H]4CC[C@@H]5C[C@](C)(O)CC[C@]5(C)[C@H]4CC[C@]23C)cc1` [Compound 48] is 7.30 to 7.70.
To `CCc1ccc(C(=O)[C@H]2CC[C@H]3[C@@H]4CC[C@@H]5C[C@](C)(O)CC[C@]5(C)[C@H]4CC[C@]23C)cc1` [Compound 49] belongs > 7.70; to `COc1ccccc1C(=O)[C@H]1CC[C@H]2[C@@H]3CC[C@@H]4C[C@](C)(O)CC[C@@H]4[C@H]3CC[C@]12C` [Compound 50], < 7.00; to `C[C@@]1(O)CC[C@@]2(C)[C@H](CC[C@@H]3[C@@H]2CC[C@]2(C)[C@@H](C(=O)c4ccc(Cl)cc4)CC[C@@H]32)C1` [Compound 51], 7.00 to 7.30.
The figure for `C[C@@]1(O)CC[C@H]2[C@H](CC[C@@H]3[C@@H]2CC[C@]2(C)[C@@H](C(=O)c4ccc(Cl)cc4)CC[C@@H]32)C1` [Compound 52] is 7.30 to 7.70.
In the case of `COc1ccccc1C(=O)[C@H]1CC[C@H]2[C@@H]3CC[C@@H]4C[C@](C)(O)CC[C@]4(C)[C@H]3CC[C@]12C` [Compound 53], the pIC50 is < 7.00.
To `C[C@@]1(O)CC[C@@]2(C)[C@H](CC[C@@H]3[C@@H]2CC[C@]2(C)[C@@H](C(=O)c4ccc(F)cc4)CC[C@@H]32)C1` [Compound 54] belongs 7.00 to 7.30; to `C[C@@]1(O)CC[C@H]2[C@H](CC[C@@H]3[C@@H]2CC[C@]2(C)[C@@H](C(=O)c4ccc(F)cc4)CC[C@@H]32)C1` [Compound 55], 7.30 to 7.70.
To `C[C@@]1(O)CC[C@H]2[C@H](CC[C@@H]3[C@@H]2CC[C@]2(C)[C@@H](C(=O)c4cccc(F)c4)CC[C@@H]32)C1` [Compound 56] belongs 7.30 to 7.70.
On to `C[C@@]1(O)CC[C@H]2[C@@H](CC[C@@H]3[C@@H]2CC[C@]2(C)[C@@H](C(=O)c4ccc(-c5ccccc5)cc4)CC[C@@H]32)C1` [Compound 58], for which the negative logarithm of the IC50 (pIC50) was 7.00 to 7.30.
As to `C[C@@]1(O)CC[C@H]2[C@@H](CC[C@@H]3[C@@H]2CC[C@]2(C)[C@@H](C(=O)c4ccc5ccccc5c4)CC[C@@H]32)C1` [Compound 59], the negative logarithm of the IC50 (pIC50) is 7.00 to 7.30.
As for `C[C@@]1(O)CC[C@H]2[C@H](CC[C@@H]3[C@@H]2CC[C@]2(C)[C@@H](C(=O)c4ccccn4)CC[C@@H]32)C1` [Compound 60], the pIC50 was < 7.00.
To `COc1ccc(C(=O)[C@H]2CC[C@H]3[C@@H]4CC[C@@H]5C[C@](C)(O)CC[C@]5(C)[C@H]4CC[C@]23C)cc1` [Compound 61] belongs < 7.00.
To `C[C@@]1(O)CC[C@@]2(C)[C@H](CC[C@@H]3[C@@H]2CC[C@]2(C)[C@@H](C(=O)c4ccccn4)CC[C@@H]32)C1` [Compound 62] belongs < 7.00; to `COc1cccc(C(=O)[C@H]2CC[C@H]3[C@@H]4CC[C@@H]5C[C@](C)(O)CC[C@]5(C)[C@H]4CC[C@]23C)c1` [Compound 63], 7.00 to 7.30.
The figure for `Cc1ccccc1C(=O)[C@H]1CC[C@H]2[C@@H]3CC[C@@H]4C[C@](C)(O)CC[C@@H]4[C@H]3CC[C@]12C` [Compound 64] is < 7.00.
For `C[C@@]1(O)CC[C@H]2[C@H](CC[C@@H]3[C@@H]2CC[C@]2(C)[C@@H](C(=O)c4cccnc4)CC[C@@H]32)C1` [Compound 70], the pIC50 is 7.00 to 7.30.
For `COc1cccc(C(=O)[C@H]2CC[C@H]3[C@@H]4CC[C@H]5C[C@](C)(O)CC[C@@H]5[C@H]4CC[C@]23C)c1` [Compound 71], the pIC50 was < 7.00.
To `COc1ccc2cc(C(=O)[C@H]3CC[C@H]4[C@@H]5CC[C@@H]6C[C@](C)(O)CC[C@@H]6[C@H]5CC[C@]34C)ccc2c1` [Compound 72] belongs 7.30 to 7.70; to `Cc1cccc(C(=O)[C@H]2CC[C@H]3[C@@H]4CC[C@@H]5C[C@](C)(O)CC[C@]5(C)[C@H]4CC[C@]23C)c1` [Compound 73], 7.00 to 7.30.
Consider `Cc1cccc(C(=O)[C@H]2CC[C@H]3[C@@H]4CC[C@@H]5C[C@](C)(O)CC[C@@H]5[C@H]4CC[C@]23C)c1` [Compound 74], for which the pIC50 was 7.30 to 7.70.
With `Cc1ccc(C(=O)[C@H]2CC[C@H]3[C@@H]4CC[C@H]5C[C@](C)(O)CC[C@]5(C)[C@H]4CC[C@]23C)cc1` [Compound 75], the negative-log IC50 (pIC50) is < 7.00.
To `COc1ccc(C(=O)[C@H]2CC[C@H]3[C@@H]4CC[C@H]5C[C@](C)(O)CC[C@]5(C)[C@H]4CC[C@]23C)cc1` [Compound 76] belongs < 7.00; to `COc1cccc(C(=O)[C@H]2CC[C@H]3[C@@H]4CC[C@H]5C[C@](C)(O)CC[C@]5(C)[C@H]4CC[C@]23C)c1` [Compound 77], < 7.00.
The figure for `COc1ccccc1C(=O)[C@H]1CC[C@H]2[C@@H]3CC[C@H]4C[C@](C)(O)CC[C@]4(C)[C@H]3CC[C@]12C` [Compound 78] is < 7.00; for `C[C@@]1(O)CC[C@@]2(C)[C@@H](CC[C@@H]3[C@@H]2CC[C@]2(C)[C@@H](C(=O)c4ccc(F)cc4)CC[C@@H]32)C1` [Compound 79] it is < 7.00.
As for `C[C@@]1(O)CC[C@@]2(C)[C@@H](CC[C@@H]3[C@@H]2CC[C@]2(C)[C@@H](C(=O)c4ccccc4F)CC[C@@H]32)C1` [Compound 80], the negative logarithm of the IC50 (pIC50) was < 7.00.
To `C[C@@]1(O)CC[C@@]2(C)[C@@H](CC[C@@H]3[C@@H]2CC[C@]2(C)[C@@H](C(=O)c4ccc(Cl)cc4)CC[C@@H]32)C1` [Compound 81] belongs < 7.00; to `Cc1cccc(C(=O)[C@H]2CC[C@H]3[C@@H]4CC[C@H]5C[C@](C)(O)CC[C@]5(C)[C@H]4CC[C@]23C)c1` [Compound 82], < 7.00; to `C[C@@]1(O)CC[C@@]2(C)[C@H](CC[C@@H]3[C@@H]2CC[C@]2(C)[C@@H](C(=O)c4cccc(F)c4)CC[C@@H]32)C1` [Compound 83], 7.30 to 7.70.
To `C[C@@]1(O)CC[C@@]2(C)[C@H](CC[C@@H]3[C@@H]2CC[C@]2(C)[C@@H](C(=O)c4ccccc4F)CC[C@@H]32)C1` [Compound 84] belongs < 7.00; to `COc1ccc2cc(C(=O)[C@H]3CC[C@H]4[C@@H]5CC[C@@H]6C[C@](C)(O)CC[C@]6(C)[C@H]5CC[C@]34C)ccc2c1` [Compound 85], < 7.00; to `Cc1ccc(C(=O)[C@H]2CC[C@H]3[C@@H]4CC[C@@H]5C[C@](C)(O)CC[C@@H]5[C@H]4CC[C@]23C)cc1` [Compound 86], 7.30 to 7.70.
To `COc1ccc(C(=O)[C@H]2CC[C@H]3[C@@H]4CC[C@H]5C[C@](C)(O)CC[C@@H]5[C@H]4CC[C@]23C)cc1` [Compound 87] belongs < 7.00; to `C[C@@]1(O)CC[C@H]2[C@H](CC[C@@H]3[C@@H]2CC[C@]2(C)[C@@H](C(=O)c4cnc[nH]4)CC[C@@H]32)C1` [Compound 88], < 7.00.
`Cc1ccc(C(=O)[C@H]2CC[C@H]3[C@@H]4CC[C@@H]5C[C@](C)(O)CC[C@]5(C)[C@H]4CC[C@]23C)cc1` [Compound 89]: the pIC50 was 7.00 to 7.30.
The figure for `COC[C@]12CC[C@@](C)(O)C[C@@H]1CC[C@H]1[C@@H]3CC[C@H](C(=O)c4ccccc4-c4ccccc4)[C@@]3(C)CC[C@@H]12` [Compound 91] is < 7.00; for `COC[C@]12CC[C@@](C)(O)C[C@@H]1CC[C@H]1[C@@H]3CC[C@H](C(=O)c4ccc(C)cc4)[C@@]3(C)CC[C@@H]12` [Compound 92] it is < 7.00; for `COC[C@]12CC[C@@](C)(O)C[C@@H]1CC[C@H]1[C@@H]3CC[C@H](C(=O)c4cc(C)cc(C)c4)[C@@]3(C)CC[C@@H]12` [Compound 93] it is 7.00 to 7.30.
The figure for `COC[C@]12CC[C@@](C)(O)C[C@@H]1CC[C@H]1[C@@H]3CC[C@H](C(=O)c4ccc5c(c4)OCO5)[C@@]3(C)CC[C@@H]12` [Compound 94] is 7.00 to 7.30; for `COC[C@]12CC[C@@](C)(O)C[C@@H]1CC[C@H]1[C@@H]3CC[C@H](C(=O)c4ccc(C)c(C)c4)[C@@]3(C)CC[C@@H]12` [Compound 95] it is < 7.00; for `COC[C@]12CC[C@@](C)(O)C[C@@H]1CC[C@H]1[C@@H]3CC[C@H](C(=O)c4ccc(OC)cc4C)[C@@]3(C)CC[C@@H]12` [Compound 96] it is < 7.00.
The figure for `COC[C@]12CC[C@@](C)(O)C[C@@H]1CC[C@H]1[C@@H]3CC[C@H](C(=O)c4ccc5cc(OC)ccc5c4)[C@@]3(C)CC[C@@H]12` [Compound 97] is < 7.00; for `C[C@@]1(O)CC[C@H]2[C@H](CC[C@@H]3[C@@H]2CC[C@]2(C)[C@@H](C(=O)c4cnn[nH]4)CC[C@@H]32)C1` [Compound 98] it is < 7.00; for `Cn1ncc(C(=O)[C@H]2CC[C@H]3[C@@H]4CC[C@@H]5C[C@](C)(O)CC[C@@H]5[C@H]4CC[C@]23C)n1` [Compound 99] it is < 7.00.
